From patent US12065436B2, “Cardiac sarcomere inhibitors” (Cytokinetics, Inc., priority 2018, dated 2024) come the findings set out here.

Structures are written as SMILES.

Usually IC50 stands for the concentration that gives 50% inhibition.

In the experiment the target is bovine cardiac myofibrils (full-length cardiac myosin ATPase in the native sarcomere) (Bos taurus (Bovine), UniProt Q9BE39). Nature of the experiment: Skinned bovine cardiac myofibril ATPase assay (PK/LDH-coupled). It is filed as biochemical. To be noted: Ca2+ activating to 75% of maximal rate; for CDMF75 IC15: concentration giving 15% inhibition; for IC50: read-out: CDMF75 IC50. In a few lines: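 Triton-skinned bovine left-ventricle myofibrils (1 mg/mL) in PM 12 buffer (12 mM PIPES, 2 mM MgCl2, pH 6.8) with 50 μM ATP, 0.6 mM EGTA and CaCl2 set for 50% or 75% activation. Steady-state ATPase inhibition followed by PK/LDH-coupled NADH oxidation at 340 nm.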
Chain of bovine cardiac myofibrils (full-length cardiac myosin ATPase in the native sarcomere) (Q9BE39 whole entry): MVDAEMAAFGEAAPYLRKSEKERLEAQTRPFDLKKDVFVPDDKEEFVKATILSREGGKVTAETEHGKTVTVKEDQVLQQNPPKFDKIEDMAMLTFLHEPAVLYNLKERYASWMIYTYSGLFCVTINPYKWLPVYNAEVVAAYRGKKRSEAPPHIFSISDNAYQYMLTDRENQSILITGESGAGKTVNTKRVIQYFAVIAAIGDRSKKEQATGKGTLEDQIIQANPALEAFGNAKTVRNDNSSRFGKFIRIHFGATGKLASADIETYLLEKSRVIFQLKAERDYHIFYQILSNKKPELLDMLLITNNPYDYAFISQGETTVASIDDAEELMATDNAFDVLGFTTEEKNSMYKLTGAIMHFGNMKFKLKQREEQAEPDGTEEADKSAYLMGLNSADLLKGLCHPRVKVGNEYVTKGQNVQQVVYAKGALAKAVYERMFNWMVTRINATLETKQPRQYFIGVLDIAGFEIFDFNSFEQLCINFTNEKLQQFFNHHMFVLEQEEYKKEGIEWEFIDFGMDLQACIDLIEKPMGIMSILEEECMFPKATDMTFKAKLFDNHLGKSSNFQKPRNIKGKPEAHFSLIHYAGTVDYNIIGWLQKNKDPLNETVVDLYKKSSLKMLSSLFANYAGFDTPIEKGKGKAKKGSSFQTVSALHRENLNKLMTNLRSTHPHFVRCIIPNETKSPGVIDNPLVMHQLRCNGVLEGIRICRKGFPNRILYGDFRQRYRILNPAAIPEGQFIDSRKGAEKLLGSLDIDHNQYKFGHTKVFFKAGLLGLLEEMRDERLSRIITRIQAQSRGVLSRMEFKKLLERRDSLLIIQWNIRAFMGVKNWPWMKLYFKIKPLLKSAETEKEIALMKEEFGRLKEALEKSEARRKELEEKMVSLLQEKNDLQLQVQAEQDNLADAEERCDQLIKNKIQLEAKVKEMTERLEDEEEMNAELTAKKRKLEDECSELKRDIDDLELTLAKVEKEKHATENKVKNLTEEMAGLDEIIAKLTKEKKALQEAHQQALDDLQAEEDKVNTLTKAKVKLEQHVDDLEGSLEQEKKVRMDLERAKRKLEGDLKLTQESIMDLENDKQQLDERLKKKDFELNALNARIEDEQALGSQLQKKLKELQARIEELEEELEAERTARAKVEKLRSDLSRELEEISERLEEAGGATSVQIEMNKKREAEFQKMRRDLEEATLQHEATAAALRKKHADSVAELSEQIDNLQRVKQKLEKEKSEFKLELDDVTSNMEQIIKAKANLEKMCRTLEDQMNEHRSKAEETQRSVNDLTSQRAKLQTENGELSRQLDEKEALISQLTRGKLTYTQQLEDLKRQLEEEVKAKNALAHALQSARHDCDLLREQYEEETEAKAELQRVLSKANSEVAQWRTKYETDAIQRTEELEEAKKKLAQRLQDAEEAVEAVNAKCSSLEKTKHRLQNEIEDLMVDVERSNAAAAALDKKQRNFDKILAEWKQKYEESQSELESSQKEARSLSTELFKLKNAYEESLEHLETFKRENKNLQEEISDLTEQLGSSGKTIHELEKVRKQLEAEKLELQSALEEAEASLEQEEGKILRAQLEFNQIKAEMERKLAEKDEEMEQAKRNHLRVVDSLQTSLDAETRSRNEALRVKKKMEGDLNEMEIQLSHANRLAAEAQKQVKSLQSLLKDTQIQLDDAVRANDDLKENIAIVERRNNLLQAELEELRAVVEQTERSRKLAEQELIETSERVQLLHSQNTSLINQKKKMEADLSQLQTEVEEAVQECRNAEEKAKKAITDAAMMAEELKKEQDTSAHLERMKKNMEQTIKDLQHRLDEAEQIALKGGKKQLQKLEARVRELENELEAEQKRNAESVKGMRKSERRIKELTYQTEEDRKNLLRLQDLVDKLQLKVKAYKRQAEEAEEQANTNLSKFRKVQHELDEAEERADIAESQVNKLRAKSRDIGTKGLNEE
Chain of bovine cardiac myofibrils (full-length cardiac myosin ATPase in the native sarcomere) (P85100 whole entry partner): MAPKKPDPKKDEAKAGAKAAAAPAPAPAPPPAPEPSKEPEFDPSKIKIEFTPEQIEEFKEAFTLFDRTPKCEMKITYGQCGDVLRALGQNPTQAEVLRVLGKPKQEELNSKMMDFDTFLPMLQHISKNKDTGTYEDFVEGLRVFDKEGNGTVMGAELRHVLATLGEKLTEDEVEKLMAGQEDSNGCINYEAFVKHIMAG
Chain of bovine cardiac myofibrils (full-length cardiac myosin ATPase in the native sarcomere) (Q3SZE5 whole entry partner): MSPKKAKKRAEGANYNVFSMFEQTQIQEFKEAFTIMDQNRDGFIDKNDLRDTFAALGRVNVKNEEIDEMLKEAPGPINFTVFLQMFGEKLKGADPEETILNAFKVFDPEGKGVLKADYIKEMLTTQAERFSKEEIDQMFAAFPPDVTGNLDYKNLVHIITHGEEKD

With `C=Cc1cc(C(=O)N[C@@H]2CCc3cc(-c4noc(CC)n4)ccc32)ccn1` [Compound 655, (R)-N-(5-(5-ethyl-1,2,4-oxadiazol-3-yl)-2,3-dihydro-1H-inden-1-yl)-2-vinylisonicotinamide], the “CDMF75 IC15” value was determined as 600 nM and the IC50 is 1900 nM.

For the molecule `CCc1nc(-c2ccc3c(c2)OCC3NC(=O)c2cnn(C)c2)no1` (stereo not drawn) [Compound 239, N-(6-(5-ethyl-1,2,4-oxadiazol-3-yl)-2,3-dihydrobenzofuran-3-yl)-1-methyl-1H-pyrazole-4-carboxamide], the “CDMF75 IC15” value is 700 nM and the IC50 was found to be 2100 nM.

As for `CCc1nc(-c2ccc3c(c2)CC[C@H]3NC(=O)c2cnn(CCOC)c2)no1` [Compound 472, (R)-N-(5-(5-ethyl-1,2,4-oxadiazol-3-yl)-2,3-dihydro-1H-inden-1-yl)-1-(2-methoxyethyl)-1H-pyrazole-4-carboxamide], the “CDMF75 IC15” value is 800 nM and the IC50 was 3100 nM.

`CCc1nc(-c2ccc3c(c2)CC[C@H]3NC(=O)C2CCCCN2C)no1` (stereo partly drawn) [Compound 353, N-((R)-5-(5-ethyl-1,2,4-oxadiazol-3-yl)-2,3-dihydro-1H-inden-1-yl)-1-methylpiperidine-2-carboxamide]: the “CDMF75 IC15” value worked out at 29000 nM and the IC50 was greater than 39200 nM.

Turning to `CCc1nc(-c2ccc3c(c2)OCC3NC(=O)c2ccnn2C)no1` (stereo not drawn) [Compound 229, N-(6-(5-ethyl-1,2,4-oxadiazol-3-yl)-2,3-dihydrobenzofuran-3-yl)-1-methyl-1H-pyrazole-5-carboxamide], the “CDMF75 IC15” value was found to be 500 nM and the IC50 stood at 1400 nM.

For the molecule `Cn1nccc1C(=O)N[C@@H]1CCc2cc(-c3noc(C(F)F)n3)ccc21` [Compound 92, (R)-N-(5-(5-(difluoromethyl)-1,2,4-oxadiazol-3-yl)-2,3-dihydro-1H-inden-1-yl)-1-methyl-1H-pyrazole-5-carboxamide], the “CDMF75 IC15” value was 300 nM and the IC50 was 800 nM.

In the case of `CCc1nc(-c2ccc3c(c2)OCC[C@H]3NC(=O)c2ccnn2C)no1` [Compound 537, (R)-N-(7-(5-ethyl-1,2,4-oxadiazol-3-yl)chroman-4-yl)-1-methyl-1H-pyrazole-5-carboxamide], the “CDMF75 IC15” value came to 400 nM and the IC50 is 1800 nM.

Take `[2H]C([2H])([2H])c1noc(-c2ccc3c(c2)OC[C@H]3NC(=O)c2cnn(C)c2)n1` [Compound 311, (S)-1-methyl-N-(6-(3-(methyl-d3)-1,2,4-oxadiazol-5-yl)-2,3-dihydrobenzofuran-3-yl)-1H-pyrazole-4-carboxamide]: the “CDMF75 IC15” value is 1800 nM and the 50% inhibitory concentration (IC50) stood at 6300 nM.

`CCc1nc(-c2ccc3c(c2)CC[C@H]3NC(=O)C2(C)CC2)no1` [Compound 329, (R)-N-(5-(5-ethyl-1,2,4-oxadiazol-3-yl)-2,3-dihydro-1H-inden-1-yl)-1-methylcyclopropane-1-carboxamide]: the “CDMF75 IC15” value was found to be 1700 nM and the IC50 was 7000 nM.

On to `CCc1nc(-c2ccc3c(c2)CC[C@H]3NC(=O)c2nnc(C)o2)no1` [Compound 618, (R)-N-(5-(5-ethyl-1,2,4-oxadiazol-3-yl)-2,3-dihydro-1H-inden-1-yl)-5-methyl-1,3,4-oxadiazole-2-carboxamide], for which the “CDMF75 IC15” value was 300 nM and the IC50 turned out to be 1100 nM.

Consider `Cc1cc(C(=O)NC2CCc3cc(-c4coc(C)n4)ccc32)ccn1` (stereo not drawn) [Compound 145, 2-methyl-N-(5-(2-methyloxazol-4-yl)-2,3-dihydro-1H-inden-1-yl)isonicotinamide], for which the “CDMF75 IC15” value came out at 39200 nM and the IC50 was greater than 39200 nM.

For the molecule `CC(C)C(=O)N[C@@H]1CCc2cc(-c3noc(C(F)F)n3)ccc21` [Compound 284, (R)-N-(5-(5-(difluoromethyl)-1,2,4-oxadiazol-3-yl)-2,3-dihydro-1H-inden-1-yl)isobutyramide], the “CDMF75 IC15” value was determined as 38500 nM and the IC50 was greater than 39200 nM.
